The supplement of paper PMC10307832

Key:
Test in all cases: relative viability (nuclei count vs DMSO), 5 days (fraction); higher = more cells survive
[1] = compound: C1=CC=C(C(=C1)C2=CC=C(C=C2)C3=CSC4=C3C(=C(C(=O)N4)C#N)O)O + Cc1cc(Nc2cc(N3CCN(C)CC3)nc(Sc3ccc(NC(=O)C4CC4)cc3)n2)n[nH]1 [Tozasertib] (partner 0.1 µM)
Outline: (§1)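 The day after seeding in 1536-well plates, lung cancer cell lines were treated by pin tool with a single drug, or with a fixed anchor-drug dose together with five library-drug doses (not always all listed) in √10 steps. After 5 days, a combined fix-and-stain solution (final 0.05% Triton X-100, 1% formaldehyde, 1 ug/ml Hoechst) was added. Nuclei counted on 4× images gave relative viability as treated counts over vehicle counts, reported as the median of duplicate plates.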

TGX 221 + OSI-027 = compound: CC1=CN2C(=O)C=C(N=C2C(=C1)C(C)NC3=CC=CC=C3)N4CCOCC4 [TGX 221] + COc1cccc2cc(-c3nc([C@H]4CC[C@H](C(=O)O)CC4)n4ncnc(N)c34)[nH]c12 [OSI-027] (partner 0.5 µM)
Outline: as §1

[2] = compound: O=C(CCCCCCNC(=O)c1cnc(N(c2ccccc2)c2ccccc2)nc1)NO [Ricolinostat] + C[C@]1(O)C[C@@H](c2nc(-c3ccc4ccc(-c5ccccc5)nc4c3)c3c(N)nccn32)C1 [Linsitinib] (partner 1 µM)
Outline: as §1

[3] = compound: O=C(CCCCCCNC(=O)c1cnc(N(c2ccccc2)c2ccccc2)nc1)NO [Ricolinostat] + Nc1ncn([C@H]2C[C@H](O)[C@@H](CO)O2)c(=O)n1 [Decitabine] (partner 2 µM)
Outline: as §1

Q: ABC-1 was tested. Which relative viability ([1]; first compound 0.08 µM) did it give?
A: 0.214

Q: And the relative viability ([1]; first compound 0.253 µM)?
A: 0.204

Q: What about the relative viability ([1]; first compound 0.8 µM) of the same cell line?
A: 0.205

Q: And the relative viability ([1]; first compound 2.53 µM)?
A: 0.265

Q: And the relative viability ([1]; first compound 8 µM)?
A: 0.186

Q: And the relative viability (TGX 221 + OSI-027; first compound 0.08 µM)?
A: 0.518

Q: And the relative viability (TGX 221 + OSI-027; first compound 0.253 µM)?
A: 0.505

Q: And the relative viability (TGX 221 + OSI-027; first compound 0.8 µM)?
A: 0.593

Q: And the relative viability (TGX 221 + OSI-027; first compound 2.53 µM)?
A: 0.432

Q: And the relative viability (TGX 221 + OSI-027; first compound 8 µM)?
A: 0.406

Q: And the relative viability ([2]; first compound 0.08 µM)?
A: 0.616

Q: What about the relative viability ([2]; first compound 0.253 µM) of the same cell line?
A: 0.772

Q: And the relative viability ([2]; first compound 0.8 µM)?
A: 0.944

Q: And the relative viability ([2]; first compound 2.53 µM)?
A: 0.669

Q: What about the relative viability ([3]; first compound 0.08 µM) of the same cell line?
A: 0.829

Q: What about the relative viability ([3]; first compound 0.253 µM) of the same cell line?
A: 1.03

Q: And the relative viability ([3]; first compound 0.8 µM)?
A: 0.989

Q: And the relative viability ([3]; first compound 2.53 µM)?
A: 1.03
